Results from patent US8912150B2, “Ribosome structure and protein synthesis inhibitors” (Rib-X Pharmaceuticals, Inc., priority 2001, dated 2014).

How the values were obtained:
ribosomes [1] = details: S. pneumoniae; cited from earlier work
[2] = biological target: rabbit reticulocyte lysate; test: Translation inhibition in rabbit reticulocyte lysate system (luciferase mRNA); assay type: biochemical
E. coli S30 extract = assay type: biochemical
ribosomes [3] = details: macrolide-poisoned ribosomes; cited from earlier work
[4] = tested on: ribosome peptidyl transferase; details: cited from earlier work

Compound: CC[C@H]1OC(=O)[C@H](C)C(=O)[C@H](C)[C@@H](O[C@@H]2O[C@H](C)C[C@H](N(C)C)[C@H]2O)[C@](C)(OCC=Cc2cnc3ccccc3c2)C[C@@H](C)C(=O)[C@H](C)[C@H]2NC(=O)O[C@@]21C [ABT-773]
- ribosome binding relative to erythromycin (ribosomes [1]): binds ribosomes tighter than erythromycin

Compound: COc1ccc(C[C@H]2NC[C@H](O)[C@H]2OC(C)=O)cc1 [anisomycin]
- IC50 [2]: 0.19 µM
- IC50 (E. coli S30 extract): > 100 µM

Compound: CO[C@@H]1[C@@H](O[C@@H]2O[C@H](C)[C@@H](O[C@H]3C[C@@](C)(O)[C@@H](OC(=O)CC(C)C)[C@H](C)O3)[C@H](N(C)C)[C@H]2O)[C@@H](CC=O)C[C@@H](C)C(=O)/C=C/[C@@H]2O[C@H]2C[C@@H](C)OC(=O)C[C@H]1OC(C)=O [carbomycin A]
- length of oligopeptides synthesized in presence of macrolide (ribosomes [3]): strongly inhibits the formation of even the first peptide bond

Compound: O=C(N[C@H](CO)[C@H](O)c1ccc([N+](=O)[O-])cc1)C(Cl)Cl [chloramphenicol]
- IC50 [2]: > 100 µM
- IC50 (E. coli S30 extract): 12.3 µM

Compound: CC[C@H]1OC(=O)[C@H](C)[C@@H](O[C@H]2C[C@@](C)(OC)[C@@H](O)[C@H](C)O2)[C@H](C)[C@@H](O[C@@H]2O[C@H](C)C[C@H](N(C)C)[C@H]2O)[C@](C)(O)C[C@@H](C)C(=O)[C@H](C)[C@@H](O)[C@]1(C)O [erythromycin]
- length of oligopeptides synthesized in presence of macrolide (ribosomes [3]): permit the formation of tetrapeptides

Compound: CC[C@H]1OC(=O)C[C@@H](O)[C@H](C)[C@@H](O[C@@H]2O[C@H](C)[C@@H](O[C@H]3C[C@@](C)(O)[C@@H](O)[C@H](C)O3)[C@H](N(C)C)[C@H]2O)[C@@H](CC=O)C[C@@H](C)C(=O)/C=C/C(C)=C/[C@@H]1CO[C@@H]1O[C@H](C)[C@@H](O)[C@@H](OC)[C@H]1OC [tylosin]
- length of oligopeptides synthesized in presence of macrolide (ribosomes [3]): allow formation of only dipeptides

Compound: CCdA-phosphate-puromycin [CCdA-p-Puro]
- binding to the ribosome [4]: binds tightly to the ribosome
- inhibition of peptidyl transferase activity [4]: inhibits its peptidyl transferase activity

Compound: spiramycin
- length of oligopeptides synthesized in presence of macrolide (ribosomes [3]): allow formation of only dipeptides
